Assay results from patent US10597390B2, “Indoles for use in influenza virus infection” (Janssen Sciences Ireland UC, priority 2014, dated 2020).

Experiments:
MDCK cells = conditions: dog, 3 days
[1] = system: influenza virus A/Taiwan/1/86 (H1N1); assay: organism not typed; assay type: cell-based; conditions: CPE in MDCK cells, three days post-virus exposure, ATPlite
in vitro = conditions: dog, TOX MDCK CC50

Row | SMILES | melting point | CC50 (MDCK cells) | IC50 [1] | IC50 ([1]; MDCK, 72 h) | CC50 at 3 days (in vitro)
1 | Cc1cc(C(=O)N[C@@H]2CCC[C@H](Nc3nc(-c4c[nH]c5c(F)cc(Cl)cc45)ncc3F)C2)on1 [Compound 44] | 255.1 °C | 3500 nM | 15 nM | – | –
2 | Cc1cc(C(=O)N[C@@H]2CCC[C@H](Nc3nc(-c4c[nH]c5c(F)cc(F)cc45)ncc3F)C2)on1 (racemic) [Compound 91] | – | 18600 nM | 21 nM | – | –
3 | N#Cc1cc(F)c(N[C@H]2C3CCC(CC3)[C@@H]2C(=O)O)nc1-c1c[nH]c2c(F)cc(F)cc12 [Compound 215] | – | 150 nM | 0.8 nM | – | –
4 | Cc1cc(C(=O)N[C@@H]2CCC[C@@H](Nc3nc(-c4c[nH]c5c(F)cc(F)cc45)c(C#N)cc3F)C2)on1 [Compound 220] | – | 3500 nM | 10 nM | – | –
5 | Cc1cc(C(=O)N[C@@H]2CCC[C@H](Nc3nc(-c4c[nH]c5c(F)cc(F)cc45)ncc3F)C2)nn1C [Compound 129] | 158 °C | 7500 nM | 8 nM | – | –
6 | CC(=O)NCc1cc(F)c(N[C@H]2CCC[C@@H](NC(=O)c3cn(C)cn3)C2)nc1-c1c[nH]c2c(F)cc(F)cc12 [Compound 259] | > 260 °C | > 25000 nM | 170 nM | – | –
7 | N#Cc1cc(F)c(N[C@H]2C3CCC(CC3)[C@@H]2C(=O)O)nc1-c1c[nH]c2c(F)cc(F)cc12 (mixture of isomers) [Compound 216] | – | 70 nM | 2 nM | – | –
8 | Cc1cc(C(=O)N[C@@H]2CCC[C@H](Nc3nc(-c4c[nH]c5c(F)cc(F)cc45)ncc3F)C2)on1 [Compound 133] | 278.5 °C | 7500 nM | – | 13 nM | –
9 | N#Cc1cc(F)c(N[C@@H]2CCC[C@H](NC(=O)N3CCCC3)C2)nc1-c1c[nH]c2c(F)cc(F)cc12 [Compound 163] | – | 13200 nM | 720 nM | – | –
10 | Cc1cc(C(=O)N[C@@H]2CCC[C@H](Nc3nc(-c4c[nH]c5c(F)cc(F)cc45)c(C#N)cc3F)C2)nn1C [Compound 211] | 235 °C | > 25000 nM | 4 nM | – | –
11 | Cn1ccc(C(=O)N[C@@H]2CCC[C@@H](Nc3nc(-c4c[nH]c5c(F)cc(F)cc45)c(C#N)cc3F)C2)n1 [Compound 206] | – | > 25000 nM | 3 nM | – | –
12 | O=C(N[C@@H]1CCC[C@H](Nc2nc(-c3c[nH]c4c(F)cc(Cl)cc34)ncc2F)C1)c1ccccn1 (racemic) [Compound 27] | – | 9500 nM | 11 nM | – | –
13 | Cc1cc(C(=O)N[C@@H]2CCC[C@@H](Nc3nc(-c4c[nH]c5c(F)cc(F)cc45)c(C#N)cc3F)C2)on1 (racemic) [Compound 207] | 285 °C | 8000 nM | – | 12 nM | –
14 | Cn1cc(C(=O)N[C@@H]2CCC[C@H](Nc3nc(-c4c[nH]c5c(F)cc(F)cc45)ncc3F)C2)cn1 [Compound 120] | > 300 °C | – | – | 3 nM | > 25000 nM
15 | Cc1cc(C(=O)N[C@@H]2CCC[C@H](Nc3nc(-c4c[nH]c5c(F)cc(Cl)cc45)ncc3F)C2)on1 (racemic) [Compound 29] | 246.7 °C | – | – | 17 nM | 3400 nM
16 | Cc1ocnc1C(=O)N[C@@H]1CCC[C@H](Nc2nc(-c3c[nH]c4c(F)cc(Cl)cc34)ncc2F)C1 [Compound 48] | 253.4 °C | – | – | 4 nM | 5000 nM
17 | Cc1cc(C(=O)N[C@@H]2CCC[C@H](Nc3nc(-c4c[nH]c5c(F)cc(Cl)cc45)ncc3F)C2)n(C)n1 [Compound 41] | 281.2 °C | – | – | 10 nM | 6000 nM
18 | O=C(N[C@@H]1CCC[C@H](Nc2nc(-c3c[nH]c4c(F)cc(F)cc34)ncc2F)C1)c1ncccc1O [Compound 102] | 176 °C | – | – | 10 nM | 10100 nM
19 | CS(=O)(=O)NCc1cc(F)c(N[C@@H]2CCC[C@H](NC(=O)N3CCCC3)C2)nc1-c1c[nH]c2c(F)cc(F)cc12 (racemic) [Compound 250, N-((cis)-3-((6-(5,7-difluoro-1H-indol-3-yl)-3-fluoro-5-(methylsulfonamidomethyl)pyridin-2-yl)amino)cyclohexyl)pyrrolidine-1-carboxamide] | 252.1 °C | – | – | 780 nM | > 25000 nM
20 | Cc1nc(C(=O)N[C@@H]2CCC[C@H](Nc3nc(-c4c[nH]c5c(F)cc(F)cc45)ncc3F)C2)no1 [Compound 118] | 233 °C | – | – | 43 nM | > 25000 nM
21 | O=C(N[C@@H]1CCC[C@H](Nc2nc(-c3c[nH]c4c(F)cc(Cl)cc34)ncc2F)C1)c1ncc[nH]1 [Compound 58] | > 300 °C | – | – | 1 nM | 3500 nM
22 | O=C(N[C@@H]1CCC[C@H](Nc2nc(-c3c[nH]c4c(F)cc(F)cc34)ncc2F)C1)c1ccc2ncccc2n1 [Compound 100] | 84.6 °C | – | – | 54 nM | 12400 nM
23 | Nc1n[nH]c(C(=O)N[C@@H]2CCC[C@H](Nc3nc(-c4c[nH]c5c(F)cc(Cl)cc45)ncc3F)C2)n1 [Compound 54] | 293.5 °C | – | – | 4 nM | 10400 nM
24 | Cn1cnc(C(=O)N[C@@H]2CCC[C@H](Nc3nc(-c4c[nH]c5c(F)cc(Cl)cc45)ncc3F)C2)n1 [Compound 70] | 291.9 °C | – | – | 4 nM | 9100 nM
25 | CC(C)(c1nccs1)C(CC(=O)O)Nc1nc(-c2c[nH]c3c(F)cc(F)cc23)c(C#N)cc1F (centres unmarked) [Compound 232] | 223.6 °C | – | – | 3 nM | 300 nM
26 | O=C(N[C@@H]1CCC[C@H](Nc2nc(-c3c[nH]c4c(F)cc(F)cc34)ncc2F)C1)c1cnccn1 [Compound 107] | 269 °C | – | – | 45 nM | > 25000 nM
27 | Cc1cc(C(=O)N[C@@H]2CCC[C@H](Nc3nc(-c4c[nH]c5c(F)cc(F)cc45)ncc3F)C2)n[nH]1 [Compound 112] | 283 °C | – | – | 3 nM | 18000 nM
28 | Cn1nccc1C(=O)N[C@@H]1CCC[C@H](Nc2nc(-c3c[nH]c4c(F)cc(Cl)cc34)ncc2F)C1 [Compound 61] | > 300 °C | – | – | 1 nM | > 25000 nM
29 | Cn1nnc(C(=O)N[C@@H]2CCC[C@H](Nc3nc(-c4c[nH]c5c(F)cc(F)cc45)ncc3F)C2)n1 [Compound 153] | 230 °C | – | – | 20 nM | > 1000 nM
30 | Cn1ncnc1C(=O)N[C@@H]1CCC[C@H](Nc2nc(-c3c[nH]c4c(F)cc(F)cc34)ncc2F)C1 [Compound 140] | 172.7 °C | – | – | 7 nM | > 25000 nM
